Assay results taken from US8278359B2, “Compositions containing amines and use thereof to treat acne or reduce the appearance of oil or pores on the skin” (Johnson & Johnson Consumer Companies, Inc., priority 2005, dated 2012).
Marks after values point to notes of the source that are not given here.

How the values were obtained:
IL-2 (Interleukin-2) = assay: PHA-stimulated peripheral blood lymphocyte cytokine release: IL-2; type: cell-based; conditions: Homo sapiens, 48 h, read-out: IL-2 % inh.
Excerpt: (§1) The ability of various amines to affect the inflammatory responses was illustrated by its ability to reduce the production of cytokines by human lymphocytes stimulated with the T-cell receptor (TCR) activating agent phytohaemagglutinin (PHA) in the following assay.
(§2) Human leukocytes were collected from a healthy adult […] via leukopheresis, and adjusted to a density Of 1×10^6 cells/mL in serum free lymphocyte growth medium (ExVivo-15, Biowhittaker, Walkersville, Md.). PBLs were stimulated with 10 μg/mL PHA in the presence or absence of test samples following published methods (Hamamoto Y., et al. Exp Dermatol 2:231-235, 1993). The following compounds were evaluated N,N,N′,N′-Tetrakis(2-hydroxypropyl)ethylenediamine (THPED, available from BASF under the tradename “Quadrol” or “Neutrol”), N,N,N,N-Tetramethylethylenediamine (TEMED, available from Pfaltz & Bauer Chemicals (Waterbury, Conn.)), and Diethylenetriamine (available from Sigma-Aldrich) Following a 48 hour incubation at 37° C. with 5% CO2, the supernatant was removed and evaluated for cytokine content using commercially available multiplex cytokine detection kit.

IFN (interferon-gamma) = assay: PHA-stimulated peripheral blood lymphocyte cytokine release: IFN; type: cell-based; conditions: Homo sapiens, 48 h, read-out: IFN % inh.
Excerpt: as §1, §2

[1] = tested on: human facial skin biopsy punches rich in sebaceous glands; assay: Sebum lipid accumulation in facial skin biopsy punches (C14-acetate, HPTLC); type: cell-based; conditions: 25 um; two experiments, two donors
Excerpt: The ability of THPED to selectively affect the content of squalene present in human sebum without affecting other components of sebum was illustrated by its ability to selectively reduce the content of squalene present in human skin using the following assay.
The Methods used are as described previously by Pappas et al. (J Invest Dermatol. 2002 January; 118(1):164-171). In summary, samples of facial skin (otherwise to be discarded) were obtained from female patients 45-65 years of age. The subjects were healthy females without a history of retinoid or laser treatment or chemotherapy. The specimens were obtained from facial lift surgery within 5 hours from the end of the surgery. Two mm biopsy punches were taken from tissues rich in sebaceous glands and cultured in serum free medium. […]
The lipid components extracted from the explanted glands were analyzed by chromatographic separation on 10×20 cm Whatman HPTLC Silica G plates that had been previously charged with chloroform, heated in a vacuum oven at 105° C. for 30 min and cooled to room temperature in a dessicator. […]

Human keratinocytes = assay: Visual contraction of keratinocytes by real time microscopy (cell area); type: cell-based; conditions: 0.1%
Procedure: Human keratinocytes and Epilife culture media (Cascade Biologics, Portland, Oreg.) were cultured at 37° C. in a humidified atmospheres of 5% CO2/95% air. Glass Cover Slides (Applied Biophysics, Troy, N.Y.) were coated with 0.01 mg/ml Laminin V (Sigma Aldirch, St Louis, Mo.) in sterile Phosphate Buffered Saline (Gibco Life Sciences, San Diego, Calif.). Human keratinocytes were prepared at a density of 0.125×10^6 cells/mL in Epilife culture media. Human keratinocytes were plated at 3.75×10^4 cells/well on a 6 well plate containing Laminin coated coverslips and cultured at 37° C. in a humidified atmospheres of 5% […] for 48 hrs. Individual coverslips were transferred to a open bath imaging chamber (Warner Instruments, Hamden, Conn.) mounted on a Leica inverted microscope (Leitz DM1L) with an attached CCD camera. Cells were perfused with Hank's Buffered Salt Solution (HBSS; Gibco Life Sciences, San Diego, Calif.) at flow rate of 1 ml/min using a peristaltic pump (Cole Parmer, Vernon Hills, Ill.). […] Cell area was determined using Scion Image software (Version 4.0.2), and reductions in cell area were reported as the ratio of cell area after treatment to cell area prior to treatment

facial skin pores = assay: Clinical study: reduction of pore size on facial skin, parallel-polarized image analysis; type: in vivo, human; conditions: composition containing 2.5% THPED, 45 minutes
Excerpt: A composition containing 2.5% THPED was compared to a corresponding placebo composition for the reduction of pore size on facial skin. 31 subjects were enrolled in the study, with all of the subjects completing the protocol. Table XVII discloses the formulation of the two compositions.
About 0.45-0.52 g of each composition was applied on one side of the face for each subject and allowed to dry. Each composition was applied only once to the area for the duration of this study. At baseline and 45 minutes after composition application, parallel-polarized digital images were taken of the entire face to document changes observed in pore size. Pore Size Reduction was evaluated using computer analysis of Parallel-Polarized images of the face.

`CC(O)CN(CCN(CC(C)O)CC(C)O)CC(C)O` (centres unmarked) [THPED, N,N,N′,N′-Tetrakis(2-hydroxypropyl)ethylenediamine] gave an inhibition at 10 µg/mL (IL-2 (Interleukin-2)) of 10.6%, an inhibition at 100 µg/mL (IL-2 (Interleukin-2)) of 41.3% and an inhibition at 10 µg/mL (IFN (interferon-gamma)) of 18.1%. The inhibition at 100 µg/mL (IFN (interferon-gamma)) was 37.9%, the “Inhibition of Squalene accumulation, (Percent of Vehicle Treated)” value [1] was 44.0% and the “Inhibition of Triglyceride accumulation, (Percent of Vehicle Treated)” value [1] was 2.65%. For the same molecule, the “Visual Contraction of Human Keratinocytes (reduction in cell area, Mean ± Std Dev)” value (Human keratinocytes; 2 Min) was 32.9% ±, the “Visual Contraction of Human Keratinocytes (reduction in cell area, Mean ± Std Dev)” value (Human keratinocytes; 10 Min) was 37.9% ± 10.7% and the “Visual Contraction of Human Keratinocytes (reduction in cell area, Mean ± Std Dev)” value (Human keratinocytes; 20 Min) was 47.3% ± 12.7%. The “% Of Pore Size Reduction over Placebo” value (facial skin pores; single application, subject responders) was 7.11%* and the “greater pore reduction response than the placebo alone” value (facial skin pores) was 19.4%.
